Molecular target: T1, KRAS WT/SOS1 (Homo sapiens, UniProt Q07889)
T1 sequence (Q07889 1-1333): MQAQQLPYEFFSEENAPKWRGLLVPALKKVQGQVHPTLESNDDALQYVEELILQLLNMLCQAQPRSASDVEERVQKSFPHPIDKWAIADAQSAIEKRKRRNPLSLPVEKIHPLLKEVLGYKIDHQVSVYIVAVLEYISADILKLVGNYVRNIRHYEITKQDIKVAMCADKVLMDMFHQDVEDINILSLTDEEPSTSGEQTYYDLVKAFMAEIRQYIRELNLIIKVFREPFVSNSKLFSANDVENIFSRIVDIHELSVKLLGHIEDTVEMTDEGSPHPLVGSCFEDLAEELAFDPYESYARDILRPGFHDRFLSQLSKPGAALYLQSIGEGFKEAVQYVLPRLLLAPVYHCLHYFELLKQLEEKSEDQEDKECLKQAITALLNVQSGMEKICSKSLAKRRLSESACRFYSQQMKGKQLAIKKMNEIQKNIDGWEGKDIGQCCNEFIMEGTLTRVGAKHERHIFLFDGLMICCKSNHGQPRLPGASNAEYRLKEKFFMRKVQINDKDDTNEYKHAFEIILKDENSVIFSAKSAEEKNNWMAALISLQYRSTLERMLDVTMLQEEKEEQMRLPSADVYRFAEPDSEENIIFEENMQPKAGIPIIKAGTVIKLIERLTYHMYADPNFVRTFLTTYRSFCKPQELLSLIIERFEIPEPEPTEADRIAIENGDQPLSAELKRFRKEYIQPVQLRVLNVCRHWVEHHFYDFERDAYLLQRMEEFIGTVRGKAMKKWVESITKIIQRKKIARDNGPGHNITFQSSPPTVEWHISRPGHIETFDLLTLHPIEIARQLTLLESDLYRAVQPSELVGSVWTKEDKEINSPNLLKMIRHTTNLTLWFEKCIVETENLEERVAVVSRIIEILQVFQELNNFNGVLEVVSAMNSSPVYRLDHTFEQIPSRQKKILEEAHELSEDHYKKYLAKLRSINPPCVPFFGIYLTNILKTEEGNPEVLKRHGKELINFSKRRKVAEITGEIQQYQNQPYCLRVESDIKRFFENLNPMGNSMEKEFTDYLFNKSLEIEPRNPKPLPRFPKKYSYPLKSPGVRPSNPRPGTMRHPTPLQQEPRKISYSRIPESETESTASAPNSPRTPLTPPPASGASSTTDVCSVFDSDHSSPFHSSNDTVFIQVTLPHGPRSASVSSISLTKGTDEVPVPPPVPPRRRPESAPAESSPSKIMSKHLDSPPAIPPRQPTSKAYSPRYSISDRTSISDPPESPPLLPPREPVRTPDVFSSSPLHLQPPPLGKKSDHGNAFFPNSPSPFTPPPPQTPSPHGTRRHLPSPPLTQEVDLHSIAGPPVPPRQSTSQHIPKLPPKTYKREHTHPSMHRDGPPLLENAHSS
Assay: HTRF KRAS WT/SOS1 PPI kit (Cisbio) screen for SOS1 inhibitors
Assay type: binding
Settings: 10-point 1/2-log dilution from 10 μM, 60 minutes at room temperature
Description: Compounds were screened using an HTRF KRAS WT/SOS1 PPI kit provided by Cis bio, according to the manufacturer's instructions, with the modifications described below. All reagents were allowed to equilibrate to room temperature and diluted to working stock in Binding Domain Detection buffer (BDD buffer). Stock solutions were prepared by adding 1 part Tag1-KRAS WT/GTP to 1 part Tag2-SOS1 and 1 part BDD. Separately, 1 part Anti-Tag1 XL665 antibody premix was added to Anti-Tag2 Tb cryptate antibody premix. BI-3406 (Selleck Chemicals) was used as a standard, solubilised to 10 mM in DMSO. Test compounds were also solubilised to 10 mM in DMSO. […] Per well, 6 μL of Tag1-KRAS WT/GTP premix, 4 ul Tag2-SOS1 premix and 10 μl of Anti-Tag1 XL665 and Anti-Tag2 Tb cryptate antibodies were then added using a E1-ClipTip™ Electronic Adjustable Multichannel Equalizer Pipette. After the final addition, the plate was covered and placed in the benchtop incubator set at 22° C. The reaction was incubated for 60 minutes at room temperature, prior to reading using a Pherastar FSX plate reader.

**Q.** Which IC50 does the source give for `Cc1nc(N[C@H](C)c2cccc(C(F)F)c2F)c2cc(S(=O)(=O)N3CC4CC(C3)O4)ncc2n1` [Example 18, 6-((6-oxa-3-azabicyclo [3.1.1]heptan-3-yl)sulfonyl)-N—((R)-1-(3-(difluoromethyl)-2-fluorophenyl)ethyl)-2-methylpyrido[3,4-d] pyrimidin-4-amine] here?
**A.** The IC50 was < 100 nM.

Source: patent US20260115194A1, “NEW TREATMENTS FOR PAIN” (Sevenless Therapeutics Limited, priority 2023, published 2026)
